Several values for one entry are separate records, joined by “and”; a condition that tells them apart may be missing. Equal values may be shown once.
How the values were obtained:
[1] = Blood glucose level after administration of STZ (simple blood glucose meter, tail vein); assay type: in vivo, mouse; settings: STZ 75 mg/kg intraperitoneally for 3 consecutive days, 4-week-old male C57BL/6NCr Slc mice, fasted overnight; individual animals
Procedure: (§1) 0.01% citrate buffer solution (pH 4.5) of streptozotocin (STZ) was intraperitoneally administered to 4-week-old male C57BL/6NCr Slc mice in an amount of 75 mg/kg in terms of STZ for 3 consecutive days (administered solution amount: 10 mL/kg). 0.01% citrate buffer solution (pH 4.5), which is a solvent, was intraperitoneally administered to the control group for 3 consecutive days (administered solution amount: 10 mL/kg). The animals from which the organs and tissue were to be collected were fasted overnight from the day before dissection. On the day of dissection, the tail vein of each mouse was cut, and the blood glucose level was measured with a simple blood glucose meter. On the following day, the mice were euthanized by cervical dislocation without anesthesia, and the organs and tissue were collected. After the wet weights of the collected organs and tissue were measured, the organs and tissue were rapidly frozen in liquid nitrogen and stored at −80° C.

[2] = Body weight at dissection after administration of STZ; assay type: in vivo, mouse; settings: STZ 75 mg/kg intraperitoneally for 3 consecutive days, 4-week-old male C57BL/6NCr Slc mice; individual animals
Procedure: as §1

[3] = test system: Hamp; assay: D-iOrgans real-time PCR, STZ/Control relative expression, Hamp; assay type: in vivo, mouse
Procedure: (§2) 1 μg of total RNA obtained from each tissue was used as a template for cDNA synthesis, and cDNA was synthesized using Oligo dT20 primer according to the standard protocol of Superscript III First-Strand Synthesis Supermix (Life Technologies). After the synthesized cDNA was diluted 20-fold with 10-fold diluted TE buffer (10 mM Tris-HCl, pH 8.0, 0.1 mM EDTA), real-time PCR was performed with a […] (Roche) according to the standard protocol of LightCycler 480 SYBR Green I Master (Roche) and Cp values were measured. The relative expression level of each gene relative to the reference gene was calculated by comparing the Cp value obtained for each gene with the Cp value for β2-microglobulin (B2m) or Maea as a reference gene, and MI/Sham was determined. However, with the primer set for Hba-a, Hba-a1 and Hba-a2 cannot be distinguished in PCR, and with the primer set for Hbb-b, Hbb-bs, and Hbb-bt cannot be distinguished in PCR. […]
(§3) Real-time PCR was conducted according to the procedure described in 1-4 (4) of “I. iOrgans” to measure Cp values. The relative expression level of each gene relative to the reference gene was calculated by comparing the Cp value obtained for each gene with the Cp value for β2-microglobulin (B2m) or Maea as a reference gene to, and STZ/Control was determined. […]

[4] = test system: Saa1; assay: D-iOrgans real-time PCR, STZ/Control relative expression, Saa1; assay type: in vivo, mouse; settings: liver of the STZ administration mice
Procedure: as §2, §3

[5] = administered to a mouse for a week or more; cited from earlier work

CN(N=O)C(=O)N[C@H]1C(O)O[C@H](CO)[C@@H](O)[C@@H]1O (mixture of isomers) [STZ, streptozotocin]
Blood glucose [1]: 65 mg/dL and 83 mg/dL and 42 mg/dL
Body weight at dissection [2]: 12.8 g (2×) and 10.3 g
Expression of Hamp in the heart (STZ/Control) ([3]; heart, STZ administration mice, day after 3 days of STZ): increase
Predicted side effect in the heart from Hamp expression ([3]; inferred from known function of Hamp (iron metabolism)): decrease the amount of iron in cardiac cells
Expression of Saa1 in the liver (STZ/Control) [4]: increase
Glycemic state after long administration [5]: becomes hyperglycemic

From patent US11244760B2, “Prediction device based on inter-organ cross talk system” (KARYDO THERAPEUTIX, INC., priority 2015, dated 2022)
